Earlier results in article PMC11336009 (GeroScience, 2024).

System: P-glycoprotein
Conditions: at the level of the kidney; cited from earlier work

SMILES: N[C@@H](CC(=O)N1CCn2c(nnc2C(F)(F)F)C1)Cc1cc(F)c(F)cc1F [Sitagliptin]
- Substrate for the multi-drug resistance transporter P-glycoprotein: substrate
